According to publication PMC9250534, “Synthesis and direct assay of large macrocycle diversities by combinatorial late-stage modification at picomole scale” (Nature Communications, 2022):
Numbered stars: 1 amine (or outer) side, 2 acyl side, 3 side chain; on linkers, the order of the positions; unused ones are H or OH. Bridge positions count the residues as written; N and C are the ends. Square brackets hold non-standard residues; d marks the D form. Peptide text beside a SMILES is read from it. * marks the point of attachment. ξ: configuration not given here. ξPro(4-NHCO(5-Cl-2-thienyl)) = O=C(NC1CNC(C(=O)O)C1)c1ccc(Cl)s1; 2Thenoyl(5-Cl) = O=C(c1ccc(Cl)s1)*; Cysteamide = C(CS[*:3])N[*:1]; dDap = NC[C@@H](N)C(=O)O; Api = NC1(C(=O)O)CCNCC1; Dap = NC[CH](N)C(=O)O; Mpa = O=C(O)CCS

Biological target: T1, thrombin (Homo sapiens, UniProt P00734)
T1 construct: consists of two polypeptide chains of 36 (light chain) and 259 amino acid
Assay: Thrombin inhibition screen of crude macrocycle reactions (residual thrombin activity, fluorogenic substrate Z-Gly-Gly-Arg-AMC)
Assay type: biochemical
Settings: 10 µM macrocycle concentration, macrocycles containing acid 14, crude reaction; for % thrombin activity, Repeat screen: replicate reaction and screen
Method in brief: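 Each crude macrocycle (10 μM) was preincubated 10 min at room temperature with thrombin (2 nM final) in Tris-Cl pH 7.4 containing NaCl, MgCl2, CaCl2, 0.1% BSA, 0.01% Triton X-100 and 0.6% DMSO. Z-Gly-Gly-Arg-AMC (50 μM final) was then added. Inhibition came from fluorescence slopes relative to DMSO-only controls.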

SMILES	% thrombin activity, Original screen	% thrombin activity, Repeat screen
CC(C)C[C@@H]1NC(=O)CCSSCCNC(=O)[C@@H]2CCCN2C(=O)[C@@H](CNC(=O)c2ccc(Cl)s2)NC1=O [X L D4 B1] ([Mpa]L[dDap](2Thenoyl(5-Cl))P-Cysteamide; disulfide 1-C)	107.5%	100.9%
NC(=O)CC[C@@H]1NC(=O)CCSSCCNC(=O)C2(CCN(C(=O)c3ccc(Cl)s3)CC2)NC(=O)CCNC1=O [X Q B2 D6]	97.4%	98.1%
NC(=O)CC[C@@H]1NC(=O)CCSSCCNC(=O)C2(CCN(C(=O)c3ccc(Cl)s3)CC2)NC(=O)c2ccc(cc2)CNC1=O [X Q B3 D6]	87.5%	88.0%
O=C1CCSSCCNC(=O)C2CC(NC(=O)c3ccc(Cl)s3)CN2C(=O)CCNC(=O)C(CO)N1 (stereo not shown) [X S B2 D5]	96.6%	90.6%
CC(C)C1NC(=O)CCSSCCNC(=O)C(CNC(=O)c2ccc(Cl)s2)NC(=O)C2CCCN(C2)C1=O (stereo not shown) [X V B4 D3]	75.0%	73.4%
O=C1CCSSCCNC(=O)C2(CCN(C(=O)c3ccc(Cl)s3)CC2)NC(=O)[C@@H]2CCCN2C(=O)[C@H](Cc2c[nH]c3ccccc23)N1 [X W B1 D6] ([Mpa]WP[Api](2Thenoyl(5-Cl))-Cysteamide; disulfide 1-C)	105.0%	113.7%
O=C1CCSSCCNC(=O)[C@@H](CNC(=O)c2ccc(Cl)s2)NC(=O)[C@H]2CCCN(C2)C(=O)[C@H](Cc2c[nH]c3ccccc23)N1 [X W B4 D4]	108.0%	112.0%
O=C1CCSSCCNC(=O)[C@@H](CNC(=O)c2ccc(Cl)s2)NC(=O)c2cccc(c2)CNC(=O)[C@H](Cc2c[nH]c3ccccc23)N1 [X W B5 D4]	103.8%	106.8%
O=C1CCSSCCNC(=O)[C@H](CNC(=O)c2ccc(Cl)s2)NC(=O)C2(CC2)CNC(=O)[C@H](Cc2c[nH]c3ccccc23)N1 [X W B6 D3]	65.4%	56.1%
O=C1CCSSCCNC(=O)C2CCCN2C(=O)C2CC(NC(=O)c3ccc(Cl)s3)CN2C(=O)C(Cc2c[nH]c3ccccc23)N1 (stereo not shown) [X W D5 B1] ([Mpa]W[ξPro(4-NHCO(5-Cl-2-thienyl))]P-Cysteamide; disulfide 1-C; configuration not given here)	113.1%	119.4%
O=C1CCSSCCNC(=O)C2CCCN(C2)C(=O)C(CCCCNC(=O)c2ccc(Cl)s2)NC(=O)C(Cc2ccc(O)cc2)N1 (stereo not shown) [X Y D1 B4]	97.9%	97.0%
O=C1CCSSCCNC(=O)C2CCCN2C(=O)C2CC(NC(=O)c3ccc(Cl)s3)CN2C(=O)C(Cc2ccc(O)cc2)N1 (stereo not shown) [X Y D5 B1] ([Mpa]Y[ξPro(4-NHCO(5-Cl-2-thienyl))]P-Cysteamide; disulfide 1-C; configuration not given here)	92.3%	97.0%
CC1NC(=O)CCSSCCNC(=O)C(CCCCNC(=O)c2ccc(Cl)s2)NC(=O)C2CCCN2C1=O (stereo not shown) [X a B1 D1] ([Mpa]APK(2Thenoyl(5-Cl))-Cysteamide; disulfide 1-C; configuration not given here)	106.8%	115.5%
C[C@H]1NC(=O)CCSSCCNC(=O)[C@H](CCCCNC(=O)c2ccc(Cl)s2)NC(=O)CCNC1=O [X a B2 D1]	95.2%	101.4%
C[C@H]1NC(=O)CCSSCCNC(=O)[C@H]2CCCN(C2)C(=O)[C@H](CCCCNC(=O)c2ccc(Cl)s2)NC1=O [X a D1 B4]	107.0%	109.1%
CC1NC(=O)CCSSCCNC(=O)c2cccc(c2)CNC(=O)C(CCCCNC(=O)c2ccc(Cl)s2)NC1=O (stereo not shown) [X a D1 B5]	102.5%	104.4%
CC1NC(=O)CCSSCCNC(=O)C2CCCN(C2)C(=O)C(CNC(=O)c2ccc(Cl)s2)NC1=O (stereo not shown) [X a D3 B4]	97.7%	98.7%
CC1NC(=O)CCSSCCNC(=O)C2CCCN2C(=O)C(CNC(=O)c2ccc(Cl)s2)NC1=O (stereo not shown) [X a D4 B1] ([Mpa]A[Dap](2Thenoyl(5-Cl))P-Cysteamide; disulfide 1-C; configuration not given here)	108.4%	109.8%
C[C@H]1NC(=O)CCSSCCNC(=O)c2ccc(cc2)CNC(=O)[C@@H]2C[C@H](NC(=O)c3ccc(Cl)s3)CN2C1=O [X a D5 B3]	110.0%	116.2%
O=C1CCSSCCNC(=O)C2CC(NC(=O)c3ccc(Cl)s3)CN2C(=O)CCNC(=O)C(Cc2ccccc2)N1 (stereo not shown) [X f B2 D5]	95.3%	101.2%
O=C1CCSSCCNC(=O)C2CC(NC(=O)c3ccc(Cl)s3)CN2C(=O)C2CCCN(C2)C(=O)C(Cc2ccccc2)N1 (stereo not shown) [X f B4 D5]	91.9%	99.4%
O=C1CCSSCCNC(=O)c2ccc(cc2)CNC(=O)[C@H](CCCCNC(=O)c2ccc(Cl)s2)NC(=O)[C@@H](Cc2ccccc2)N1 [X f D1 B3]	100.5%	105.5%
O=C1CCNC(=O)C2(CCN(C(=O)c3ccc(Cl)s3)CC2)NC(=O)[C@@H](Cc2ccccc2)NC(=O)CCSSCCN1 [X f D6 B2]	97.4%	95.6%
O=C1CCSSCCNC(=O)C2(CCN(C(=O)c3ccc(Cl)s3)CC2)NC(=O)[C@@H]2CCCN2C(=O)[C@@H](CO)N1 [X s B1 D6] ([Mpa][dS]P[Api](2Thenoyl(5-Cl))-Cysteamide; disulfide 1-C)	104.7%	110.4%
O=C1CCSSCCNC(=O)C2CCCN2C(=O)C2(CCN(C(=O)c3ccc(Cl)s3)CC2)NC(=O)C(CO)N1 (stereo not shown) [X s D6 B1] ([Mpa]S[Api](2Thenoyl(5-Cl))P-Cysteamide; disulfide 1-C; configuration not given here)	97.6%	99.9%
O=C1CCSSCCNC(=O)[C@H]2CCCN(C2)C(=O)C2(CCN(C(=O)c3ccc(Cl)s3)CC2)NC(=O)[C@@H](CO)N1 [X s D6 B4]	93.8%	97.7%
